Measurements from PMC3788796, “The Antimicrobial Domains of Wheat Puroindolines Are Cell-Penetrating Peptides with Possible Intracellular Mechanisms of Action” (PLoS ONE, 2013).
In brackets after ≈: the same amount, converted by molar mass. Several values for one entry are separate records, joined by “and”; a condition that tells them apart may be missing. Equal values may be shown once.

Legend:
[1] = system: E. coli cells; conditions: data from previous work; cited from earlier work
[2] = system: Saccharomyces cerevisiae (ATCC 287); assay: MIC of the peptides against yeast cells; format: cell-based; conditions: PDB, 96-well two-fold dilution 250 to 2 µg/mL, 0.5–2×10^3 cells/mL, overnight 30°C, growth observed visually
Experimental: Saccharomyces cerevisiae (ATCC 287) was grown in Potato Dextrose Broth (PDB) overnight at 30°C with shaking at 220 rpm. The cultures were vortexed vigorously and the cell suspension adjusted to 1–5×10^6 cells/mL with PDB (McFarland standard 0.5) and then diluted 1∶200 with PDB to a final concentration of 0.5–2×10^3 cells/mL [37]. The MIC assays were carried out in 96-well plates as described previously. Peptides (PuroA, Pina-M, Pina-W→F and PuroB) in 25 µL volumes were added to the first empty well and a two-fold dilution was carried out across each row with a starting peptide concentration of 250 µg/mL and a final one of 2 µg/mL. Test wells were subsequently inoculated with 75 µL yeast cells (0.5–2×10^3 cells/mL) and incubated overnight at 30°C. Negative control (no peptide) and positive control (fungicide Mycobutanil) wells were also prepared. The MIC was defined as the lowest concentration of the peptide required to inhibit fungal growth, observed visually.

[3] = system: plasmid DNA (pBluescript SK+); assay: Gel retardation assay for in vitro DNA binding; conditions: 100 ng plasmid DNA in 10 µL MilliQ water, 1 h room temperature, peptide 16–500 µg/mL, post-electrophoresis EtBr staining, triplicate assays; for Peptide concentration inducing gel retardation, Full: complete inhibition of migration
Experimental: This test assesses any peptide-DNA binding by noting the retardation of the rate of migration of DNA bands through agarose gels. A number of methods were tested. As per Hsu et al., DNA of a plasmid (200 ng) or a commercial molecular weight marker (50 ng) was mixed with a peptide (to final concentrations of 32, 64, 125 or 250 µg/mL) in 15 µL of 10 mM Tris-1 mM EDTA buffer (pH 8.0), incubated at room temperature for 2 min, then electrophoresed in 0.5% or 1.0% agarose gels containing 0.5 µg/mL ethidium bromide (EtBr). Following Park et al., 100 ng plasmid DNA was mixed with a peptide (to different concentrations) in 20 µL binding buffer (5% glycerol, 10 mM Tris-HCl (pH 8.0), 1 mM EDTA, 1 mM DTT, 20 mM KCl, 50 µg/mL BSA), held for 1 h at room temperature, then electrophoresed in EtBr-containing gels. Finally the protocols were modified to eliminate any interference of EtBr in the initial peptide-DNA binding. Plasmid DNA (100 ng) was mixed with a peptide (to final concentrations of 16, 32, 64, 125, 250 or 500 µg/mL) in 10 µL of MilliQ water, held at room temperature for 1 h and electrophoresed, followed by emersion of gels in EtBr solution (0.5 µg/mL) for 30 min before imaging.

[4] = system: S. cerevisiae cells; assay: Propidium iodide uptake by yeast cells; format: cell-based, Saccharomyces cerevisiae; conditions: peptide 125 µg/mL, 1 h 30°C in PBS pH 7.4, PI 6 µg/mL 5 min; no-peptide control 5.7; average of 4 fields, two independent experiments
Experimental: S. cerevisiae was grown overnight at 30°C in 100 mL PDB and the cells collected by centrifugation and resuspended in Phosphate Buffered Saline (PBS: 137 mM NaCl, 2.7 mM KCl, 8 mM Na2HPO4, 1.46 mM KH2PO4; pH 7.4) to ∼1.5×10^7 cells/mL (OD600 = 0.6–0.8). 75 µL of the suspension was incubated with 25 µL of stock solutions of PuroA, Pina-M, Pina-W→F, PuroB and indolicidin (to give a final peptide concentration of 64, 125, 250 or 500 µg/mL), or with PBS (for no-peptide controls) for 1 h at 30°C, followed by staining with propidium iodide (PI) as described. PI stock solution (60 µg/mL) was prepared in MilliQ water and stored in dark at −20°C. It was diluted to 12 µg/mL before use, mixed 1∶1 with peptide-treated or untreated yeast cells (to final PI concentration 6 µg/mL), and the samples incubated in the dark for 5 min. A 10 µL aliquot of these was examined using a Nikon Eclipse 50 i fluorescence microscope with 561 nm excitation and 630/22 emission filter, at 400×magnification. The photomicrographs were taken under light and fluorescence for each field. Five randomly selected fields were recorded and scored for each sample.

[5] = system: E. coli (ATCC 25922); assay: E. coli filamentation assay (in vivo inhibition of DNA synthesis); format: cell-based, Escherichia coli; conditions: peptide 2–250 µg/mL, 3 h 37°C, Crystal Violet, light microscopy 1000×; triplicate
Experimental: The method as described was used to assess if the PIN-based peptides cause filamentation of E. coli cells, indicative of inhibition of in vivo DNA synthesis. E. coli (ATCC 25922) grown to logarithmic phase (OD600 = 0.2) was diluted to OD600 of ∼0.04. 75 µL of this culture was mixed with 25 µL of a peptide solution (to a final peptide concentration of 2–250 µg/mL) and incubated for 3 h at 37°C. 50 µL of the sample was spotted onto a glass slide, air dried, and stained with Crystal Violet for 1 min. Peptide mixed with water was used as negative control, and the Trp-rich AMP indolicidin (ILPWKWPWWPWRR-NH2) was used as a positive control due to its known filamentation effect. All samples were tested in triplicate. The cells were observed by light microscopy (1000×magnification).

[6] = Calcein dye leakage from bacteria-mimicking LUVs; format: biochemical; conditions: positive control, 1.0% Triton X100; average of duplicate experiments
Experimental: (§1) A calcein leakage assay as previously described was performed to determine the effects of PIN-based peptides on the permeability of synthetic large unilamellar vesicles (LUVs), designed to mimic bacterial and mammalian cell membranes. The phospholipids used were DOPC (1,2-dioleoyl-sn-glycero-3-phosphocholine), with zwitterionic head groups and DOPG (1,2-dioleoyl-sn-glycerol-3-[phosphor-rac-(1-glycerol)]), with negatively charged headgroups (Avanti® Polar lipids, Alabaster, USA). These were used to make DOPC:DOPG (1∶3) LUVs to mimic bacterial cell membranes, or DOPC only, to mimic mammalian cell membranes. Calcein-entrapped LUVs were prepared by the extrusion method using an Avanti mini extrusion apparatus (Avanti® Polar Lipids, Alabaster, USA). The DOPC:DOPG (a 1∶3 mixture) or DOPC were dissolved in chloroform (25 mg/mL) and aliquoted into glass test tubes to give a concentration of 2.6 mM when resuspended in 2 mL buffer. Chloroform was evaporated under a stream of N2 and the lipid films were dried overnight under vacuum. The films were then resuspended in 2.0 mL of 70 mM calcein buffer (in 10 mM Tris-HCl, pH 7.4) and incubated at room temperature for 30 minutes. To increase entrapment of the dye, five repeated freeze\thaw cycles were used by placing the vial in liquid N2 and then a warm water bath (37°C). The lipid mixture was then extruded through the mini-extruder 10 times through two stacked 0.1 µm pore-size filters. Free calcein was removed by centrifugation (10, 000×g, 10 min) three times and washing with 10 mM Tris, 100 mM NaCl buffer (pH 7.4). Standards of phosphorus (inorganic P; Pi) were prepared (0.05–1.5 mg/mL) using KH2PO4 and read at 820 nm and a linear standard curve was generated (Figure S1 in File S1). The phospholipid concentration of the vesicle preparations was determined by a total phosphorus assay. The assay reagent was prepared fresh by mixing 1 part of 1% ascorbic acid with 6 parts of 0.42% ammonium molybdate•4H2O in H2SO4 and stored on ice. 7 µL of it was added to 3 µL of vesicle suspensions and incubated for 20 min at 45°C. […] The standard curve of phosphorus standards (Figure S1 in File S1) was used to determine the Pi concentration in a LUV preparation, and this was converted to phospholipid concentration (Table S1 in File S1) to adjust the preparations to the required 10 µM phospholipid concentration prior to peptide treatment.
(§2) The calcein-filled LUVs were diluted with 10 mM Tris, 100 mM NaCl buffer (pH 7.4) to a final phospholipid concentration of 10 µM. The experiments were performed in a Varian Cary Eclipse fluorescence spectrophotometer with excitation and emission wavelengths of 496 nm and 515 nm, slit widths of […] and a PMT detector of 600 V. The peptides (PuroA, Pina-M, Pina-W→F and PuroB) were added to LUVs to a final peptide concentration of 8–125 µg/mL in 100 µL volumes and the fluorescence (F) monitored for 5 min at 60 s intervals. The total calcein fluorescence (FT) was determined by addition of 1.0% Triton X100. The dye leakage was calculated as % Leakage = ((F – F0)/(FT – F0)), F0 being fluorescence of each sample at T = 0.

[7] = Calcein dye leakage from mammalian-mimicking LUVs; format: biochemical; conditions: positive control, 1.0% Triton X100; average of duplicate experiments
Experimental: as §1, §2

Row | Molecule | MIC against E. coli cells [1] [µg/mL] | MIC against S. cerevisiae [2] [µg/mL] | Peptide concentration inducing gel retardation, Partial [3] [µg/mL] | Peptide concentration inducing gel retardation, Full [3] | Peptide concentration inducing gel retardation, Full ([3]; listed as indolicidin) [µg/mL] | % fluorescent cells (propidium iodide uptake) [4] [%] | Minimum peptide concentration inducing filamentation in E. coli [5] [µg/mL] | % Calcein leakage from DOPC:DOPG LUVs [6] [%] | % Calcein leakage from DOPC LUVs [7] [%]
1 | CC[C@H](C)[C@H](N)C(=O)N[C@@H](CC(C)C)C(=O)N1CCC[C@H]1C(=O)N[C@@H](Cc1c[nH]c2ccccc12)C(=O)N[C@@H](CCCCN)C(=O)N[C@@H](Cc1c[nH]c2ccccc12)C(=O)N1CCC[C@H]1C(=O)N[C@@H](Cc1c[nH]c2ccccc12)C(=O)N[C@@H](Cc1c[nH]c2ccccc12)C(=O)N1CCC[C@H]1C(=O)N[C@@H](Cc1c[nH]c2ccccc12)C(=O)N[C@@H](CCCNC(=N)N)C(=O)N[C@@H](CCCNC(=N)N)C(N)=O [Indolicidin, reference compound] | 32 ± 0 (≈ 16.8 µM) | 125 | 32 ± 0 | 64 ± 0 µg/mL | 64 | 100 | 32 ± 0 | – | –
2 | MPLSWFFPRTWGKR-NH2 [GSP-5D, peptide based on the wheat Grain softness protein-1 (Gsp-1-5D)] | 64 ± 0 | – | 32 ± 0 | 64 µg/mL and 64 ± 0 µg/mL | – | – | – | – | –
3 | Triton x100 [reference compound] | – | – | – | – | – | – | – | 99.0 | 99.0
